Experimental data taken from patent US10800791B2, “Triazole ACC inhibitors and uses thereof” (Gilead Apollo, LLC, priority 2015, dated 2020).
≈ marks a conversion by molar mass, not a printed value. Like-named read-outs stand apart in the source and are kept apart here.

Tests used:
C. krusei = experiment: Antifungal Activity Assay (broth microtiter MIC), C. krusei; type: cell-based, Candida krusei; conditions: 3 replicates, MIC recorded at 48 h; for MIC: Pichia kudriavzevii, ATCC6258, 48 h, ATCC 6258, read-out: MIC, C. krusei ATCC 6258
Outline: (§1)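 CLSI M27-A3 microdilution; RPMI 1640+MOPS; 2.5×10^3 CFU/mL final inoculum; cultures from Sabouraud dextrose agar, 35° C overnight; compound working solution 128 μg/mL from 1 mg/mL DMSO stock; visual MIC at 48 h vs growth control.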

[1] = system: Fusarium moniliforme (Fm); experiment: Growth inhibition assay of fungal pathogens, Fm; type: cell-based; conditions: for IC90: Fusarium verticillioides, 48 h, read-out: Concentration at 90% Inhibition Fm
Experimental: (§2) Compounds of the present invention were evaluated in a growth inhibition assay to determine the ability to control the growth of fungal pathogens, such as Botrtyis cinerea (Bc), Collectotrichum graminicola (Cg), Diplodia maydis (Dm), Fusarium moniliforme (Fm), Fusarium virguliforme (Fv), Phytophthora capsici (Pc), Rhizoctonia solani (Rs), and Septoria tritici (St).
(§3) Compounds to be tested were dissolved in DMSO at 2.5 mg/ml to produce compound stock solutions (“stocks”). Stocks were diluted with DMSO by a five-fold dilution in a 96-well stock plate, and two sets of final concentrations of 50, 10, and 2 ppm or 2, 0.4, and 0.08 ppm were obtained in vitro. A set of positive controls was also prepared, with various concentrations of Soraphen (2, 0.4, and 0.08 ppm), Metalaxyl (1.1, 0.22, and 0.04 ppm), and Metconazole (2, 0.4, and 0.08 ppm or 0.2, 0.04, and 0.008 ppm) after the five-fold dilutions. Negative controls on each plate included 2% DMSO, water, and a blank (media+2% DMSO).
(§4) Fungal spores were isolated from previously sub-cultured plates of Botrtyis cinerea (Bc), Collectotrichum graminicola (Cg), Diplodia maydis (Dm), Fusarium moniliforme (Fm), Fusarium virguliforme (Fv), Phytophthora capsici (Pc), and Septoria tritici (St). The isolated spores were diluted to individual concentrations with a 17% V8 liquid media. For Rhizoctonia solani (Rs) and Pythium irregulare, 1.5 mm mycelial plugs were used in place of spores and/4 Potato Dextrose Broth (PDB) was used for dilution. The spore concentrations and plug sizes were based on growth curves generated at 48 hours for each pathogen.
(§5) In a second 96-well plate, the spores or mycelial plugs, media, diluted compound solutions, and controls were combined. Once the compound was added, a true final concentration of compound in each well was measured by an OD600 reading, which adjusted for any compound precipitation that might have occurred in the well. Plate readings were repeated at both 24 and 48 hours. The blank negative control was used as a background subtraction. Additional visual ratings were performed at both 24 and 48 hours for checking on precipitation and confirming efficacy. Visual and OD600 ratings of the compounds at 48 hours were compared to the 2% DMSO negative control, and the percent of pathogen growth inhibition was determined based on those values.

[2] = system: Phytophthora capsici (Pc); experiment: Growth inhibition assay of fungal pathogens, Pc; type: cell-based; conditions: 48 h
Experimental: as §2, §3, §4, §5

[3] = system: Collectotrichum graminicola (Cg); experiment: Growth inhibition assay of fungal pathogens, Cg; type: cell-based; conditions: 48 h
Experimental: as §2, §3, §4, §5

C. parapsilosis = experiment: Antifungal Activity Assay (broth microtiter MIC), C. parapsilosis; type: cell-based, Candida parapsilosis; conditions: 3 replicates, MIC recorded at 48 h; for MIC: Lodderomyces parapsilosis, ATCC22019, 48 h, ATCC 22019, read-out: MIC, C. parapsilosis ATCC 22019
Outline: as §1

Septoria tritici (St) = experiment: Growth inhibition assay of fungal pathogens, St; type: cell-based; conditions: Zymoseptoria tritici, 48 h
Experimental: as §2, §3, §4, §5

Rhizoctonia solani (Rs) = experiment: Growth inhibition assay of fungal pathogens, Rs; type: cell-based; conditions: 48 h
Experimental: as §2, §3, §4, §5

fungal (fACC2) = fungal (fACC2) (UniProt Q00955); conditions: read-out: fACC2 (in vitro ACC2 Inhibition Assay, IC50), ADP-Glo, 5 nM ACC2, 20 μM ATP, 20 μM acetyl-CoA
[4] = system: Fusarium virguliforme (Fv); experiment: Growth inhibition assay of fungal pathogens, Fv; type: cell-based; conditions: 48 h
Experimental: as §2, §3, §4, §5

Botrtyis cinerea (Bc) = experiment: Growth inhibition assay of fungal pathogens, Bc; type: cell-based; conditions: 48 h
Experimental: as §2, §3, §4, §5

human (hACC2) = human (hACC2) (Homo sapiens, UniProt O00763); experiment: In vitro ACC inhibition assay (ADP-Glo), hACC2; type: biochemical; conditions: 5 nM ACC2, 20 μM ATP, 20 μM acetyl-CoA
Experimental: The detailed procedure is as follows. […] 10 μL ADP glo reagent was added. […] 20 μL kinase detection reagent was added.

C. albicans = experiment: Antifungal Activity Assay (broth microtiter MIC), C. albicans; type: cell-based, Candida albicans; conditions: 3 replicates, MIC recorded at 48 h; for MIC: Candida albicans, ATCC90028, 48 h, ATCC 90028, read-out: MIC, C. albicans ATCC 90028
Outline: as §1

Diplodia maydis (Dm) = experiment: Growth inhibition assay of fungal pathogens, Dm; type: cell-based; conditions: Stenocarpella maydis, 48 h
Experimental: as §2, §3, §4, §5

Chain of human (hACC2) (O00763 whole entry): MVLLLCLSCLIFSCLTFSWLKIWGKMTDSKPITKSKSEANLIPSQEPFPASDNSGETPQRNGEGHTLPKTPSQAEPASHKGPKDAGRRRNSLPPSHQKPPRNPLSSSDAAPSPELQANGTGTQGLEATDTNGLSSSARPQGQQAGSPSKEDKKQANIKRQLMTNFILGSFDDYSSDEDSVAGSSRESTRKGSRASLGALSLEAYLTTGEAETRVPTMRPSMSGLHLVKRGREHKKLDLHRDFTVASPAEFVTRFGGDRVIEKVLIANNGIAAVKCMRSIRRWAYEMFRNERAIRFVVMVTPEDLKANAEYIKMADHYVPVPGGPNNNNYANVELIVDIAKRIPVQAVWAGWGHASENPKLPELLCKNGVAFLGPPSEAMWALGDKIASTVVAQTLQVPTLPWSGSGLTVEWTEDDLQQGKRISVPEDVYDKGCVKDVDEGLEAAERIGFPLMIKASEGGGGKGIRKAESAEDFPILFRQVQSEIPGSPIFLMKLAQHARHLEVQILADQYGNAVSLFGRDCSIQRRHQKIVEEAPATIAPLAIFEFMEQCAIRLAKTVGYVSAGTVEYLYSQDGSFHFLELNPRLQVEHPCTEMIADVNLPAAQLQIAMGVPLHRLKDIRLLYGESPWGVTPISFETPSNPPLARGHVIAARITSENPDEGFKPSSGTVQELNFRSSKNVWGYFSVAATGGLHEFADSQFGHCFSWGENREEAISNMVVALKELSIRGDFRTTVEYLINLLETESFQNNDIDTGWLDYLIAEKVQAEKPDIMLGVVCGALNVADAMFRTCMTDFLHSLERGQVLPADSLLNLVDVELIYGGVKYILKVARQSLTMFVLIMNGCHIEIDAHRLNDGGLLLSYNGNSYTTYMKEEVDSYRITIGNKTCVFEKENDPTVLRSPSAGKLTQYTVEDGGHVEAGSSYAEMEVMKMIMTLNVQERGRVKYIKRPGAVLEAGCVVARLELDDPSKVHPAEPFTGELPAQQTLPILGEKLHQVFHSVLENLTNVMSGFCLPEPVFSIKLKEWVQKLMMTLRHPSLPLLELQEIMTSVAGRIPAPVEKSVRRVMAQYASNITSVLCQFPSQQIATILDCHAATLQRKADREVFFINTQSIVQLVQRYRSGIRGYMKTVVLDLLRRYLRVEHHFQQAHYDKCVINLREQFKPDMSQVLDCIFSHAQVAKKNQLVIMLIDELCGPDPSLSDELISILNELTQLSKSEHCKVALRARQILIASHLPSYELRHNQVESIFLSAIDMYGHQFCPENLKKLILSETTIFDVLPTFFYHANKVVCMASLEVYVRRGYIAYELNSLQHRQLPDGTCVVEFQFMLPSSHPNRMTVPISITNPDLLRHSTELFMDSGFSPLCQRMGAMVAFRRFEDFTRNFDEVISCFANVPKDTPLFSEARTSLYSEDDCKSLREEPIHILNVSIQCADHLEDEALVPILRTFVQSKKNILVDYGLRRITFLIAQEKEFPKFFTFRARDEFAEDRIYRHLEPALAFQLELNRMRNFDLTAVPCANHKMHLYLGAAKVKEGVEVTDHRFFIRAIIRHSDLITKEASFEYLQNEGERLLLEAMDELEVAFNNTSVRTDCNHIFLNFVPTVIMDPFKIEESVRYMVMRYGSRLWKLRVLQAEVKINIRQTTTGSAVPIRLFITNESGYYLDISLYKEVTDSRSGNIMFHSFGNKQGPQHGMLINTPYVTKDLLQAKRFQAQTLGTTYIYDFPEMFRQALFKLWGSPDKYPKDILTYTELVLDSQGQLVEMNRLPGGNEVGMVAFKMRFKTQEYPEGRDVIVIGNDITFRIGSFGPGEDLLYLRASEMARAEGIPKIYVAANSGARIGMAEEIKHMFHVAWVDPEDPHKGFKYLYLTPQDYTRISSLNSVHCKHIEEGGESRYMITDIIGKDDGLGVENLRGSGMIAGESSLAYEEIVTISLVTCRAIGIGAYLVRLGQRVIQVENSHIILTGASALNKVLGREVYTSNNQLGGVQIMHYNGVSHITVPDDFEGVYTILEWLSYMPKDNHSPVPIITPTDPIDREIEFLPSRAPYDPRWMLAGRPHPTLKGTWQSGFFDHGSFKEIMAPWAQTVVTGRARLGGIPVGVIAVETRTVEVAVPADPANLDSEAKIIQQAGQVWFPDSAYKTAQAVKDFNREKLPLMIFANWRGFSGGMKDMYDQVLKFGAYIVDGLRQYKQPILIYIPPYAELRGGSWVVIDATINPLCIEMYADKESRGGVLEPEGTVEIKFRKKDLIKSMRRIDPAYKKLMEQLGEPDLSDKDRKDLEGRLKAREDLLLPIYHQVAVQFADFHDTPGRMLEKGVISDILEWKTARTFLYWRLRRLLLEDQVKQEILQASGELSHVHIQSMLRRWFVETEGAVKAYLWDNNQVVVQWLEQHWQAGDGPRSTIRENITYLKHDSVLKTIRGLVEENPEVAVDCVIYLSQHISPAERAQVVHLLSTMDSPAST
Chain of fungal (fACC2) (Q00955 whole entry): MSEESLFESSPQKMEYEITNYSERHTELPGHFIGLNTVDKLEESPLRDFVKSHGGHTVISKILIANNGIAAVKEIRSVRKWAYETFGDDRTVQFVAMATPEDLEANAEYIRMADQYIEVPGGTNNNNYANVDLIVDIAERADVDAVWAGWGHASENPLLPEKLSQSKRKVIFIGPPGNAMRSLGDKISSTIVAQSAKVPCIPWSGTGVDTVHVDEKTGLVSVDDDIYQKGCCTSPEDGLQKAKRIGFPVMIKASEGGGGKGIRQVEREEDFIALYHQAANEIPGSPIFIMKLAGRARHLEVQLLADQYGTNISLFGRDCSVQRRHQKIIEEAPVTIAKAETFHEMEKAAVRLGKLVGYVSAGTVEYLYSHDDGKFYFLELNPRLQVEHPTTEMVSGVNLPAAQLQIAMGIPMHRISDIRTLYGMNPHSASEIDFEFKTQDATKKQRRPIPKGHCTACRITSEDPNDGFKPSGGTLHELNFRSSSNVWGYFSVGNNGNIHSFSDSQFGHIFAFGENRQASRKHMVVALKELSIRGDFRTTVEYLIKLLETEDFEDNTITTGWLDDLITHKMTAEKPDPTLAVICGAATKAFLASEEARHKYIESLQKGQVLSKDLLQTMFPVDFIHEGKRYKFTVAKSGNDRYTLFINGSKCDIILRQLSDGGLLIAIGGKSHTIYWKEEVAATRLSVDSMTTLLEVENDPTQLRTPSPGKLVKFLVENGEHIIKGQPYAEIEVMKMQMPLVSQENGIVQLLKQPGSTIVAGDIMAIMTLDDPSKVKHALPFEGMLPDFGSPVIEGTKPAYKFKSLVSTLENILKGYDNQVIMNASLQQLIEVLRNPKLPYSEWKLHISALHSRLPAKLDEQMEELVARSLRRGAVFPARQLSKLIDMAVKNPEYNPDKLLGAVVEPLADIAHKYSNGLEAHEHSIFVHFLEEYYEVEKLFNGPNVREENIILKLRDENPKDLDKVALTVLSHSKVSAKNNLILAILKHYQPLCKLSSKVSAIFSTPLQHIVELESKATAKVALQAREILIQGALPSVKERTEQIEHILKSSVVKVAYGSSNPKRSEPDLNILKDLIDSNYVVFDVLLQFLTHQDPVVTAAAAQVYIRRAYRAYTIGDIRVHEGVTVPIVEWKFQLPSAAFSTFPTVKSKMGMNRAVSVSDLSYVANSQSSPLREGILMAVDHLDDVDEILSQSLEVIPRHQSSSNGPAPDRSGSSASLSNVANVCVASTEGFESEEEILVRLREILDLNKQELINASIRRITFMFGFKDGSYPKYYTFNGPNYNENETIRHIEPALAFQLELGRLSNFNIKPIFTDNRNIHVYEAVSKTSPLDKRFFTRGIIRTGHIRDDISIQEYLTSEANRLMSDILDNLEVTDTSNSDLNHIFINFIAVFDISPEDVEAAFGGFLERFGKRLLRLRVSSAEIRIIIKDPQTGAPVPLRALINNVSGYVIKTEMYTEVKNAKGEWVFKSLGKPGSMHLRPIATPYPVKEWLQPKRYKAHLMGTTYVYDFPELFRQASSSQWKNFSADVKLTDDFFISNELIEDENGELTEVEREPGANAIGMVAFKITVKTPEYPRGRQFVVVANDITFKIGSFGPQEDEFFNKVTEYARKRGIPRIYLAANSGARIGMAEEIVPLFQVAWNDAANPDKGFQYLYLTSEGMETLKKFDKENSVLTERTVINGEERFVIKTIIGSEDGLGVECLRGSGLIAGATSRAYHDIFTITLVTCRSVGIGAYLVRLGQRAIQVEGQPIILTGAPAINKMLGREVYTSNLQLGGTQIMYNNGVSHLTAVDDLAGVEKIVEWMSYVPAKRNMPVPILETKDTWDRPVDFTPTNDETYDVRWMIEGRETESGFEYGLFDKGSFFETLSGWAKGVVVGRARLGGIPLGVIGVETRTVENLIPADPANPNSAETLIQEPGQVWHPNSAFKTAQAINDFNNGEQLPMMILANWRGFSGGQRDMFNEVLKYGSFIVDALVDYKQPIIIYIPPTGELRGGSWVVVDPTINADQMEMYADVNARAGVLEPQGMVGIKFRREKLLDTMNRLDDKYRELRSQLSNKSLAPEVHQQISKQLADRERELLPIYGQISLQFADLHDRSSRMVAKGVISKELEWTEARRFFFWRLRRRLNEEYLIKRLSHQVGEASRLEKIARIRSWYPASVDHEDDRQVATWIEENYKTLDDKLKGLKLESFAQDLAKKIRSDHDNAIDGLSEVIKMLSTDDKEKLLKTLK

Structure (SMILES): COCCO[C@@H](Cn1c(=O)n([C@@H](C)C(=O)NC(C)C)c(=O)c2c(C)c(-n3nccn3)sc21)c1cc(F)ccc1OC [Compound I-66, (S)-2-(1-((R)-2-(5-fluoro-2-methoxyphenyl)-2-(2-methoxy-ethoxy)ethyl)-5-methyl-2,4-dioxo-6-(2H-1,2,3-triazol-2-yl)-1,4-dihydrothieno[2,3-d]pyrimidin-3(2H)-yl)-N-isopropylpropanamide]
- MIC, C. krusei ATCC 6258 (C. krusei; Table 3a): B (MIC of 1.1-2.0 μg/mL)
- MIC, C. krusei ATCC 6258 (C. krusei; Table 3b (additional results)): C (MIC of 2.01-4.0 μg/mL)
- Concentration at 90% Inhibition Fm ([1]; Fusarium moniliforme, growth inhibition at 48 hours vs 2% DMSO control): AA (compound concentration of 0.08 ppm at 90% inhibition of fungal pathogens)
- IC90 [1]: 0.08 µg/mL (≈ 0.136 µM)
- IC90 ([2]; read-out: Concentration at 90% Inhibition Pc, Phytophthora capsici, growth inhibition at 48 hours vs 2% DMSO control): 10 µg/mL (≈ 17 µM)
- IC90 ([2]; read-out: Concentration at 90% Inhibition Pc, Phytophthora capsici, growth inhibition vs 2% DMSO control at 48 hours): > 50 µg/mL
- IC90 ([3]; read-out: Concentration at 90% Inhibition Cg, Collectotrichum graminicola, growth inhibition at 48 hours vs 2% DMSO control): 0.4 µg/mL (≈ 0.68 µM)
- IC90 ([3]; read-out: Concentration at 90% Inhibition Cg, Collectotrichum graminicola, growth inhibition vs 2% DMSO control at 48 hours): 0.4 µg/mL (≈ 0.68 µM)
- MIC, C. parapsilosis ATCC 22019 (C. parapsilosis; Table 3a): B (MIC of 1.1-2.0 μg/mL)
- MIC, C. parapsilosis ATCC 22019 (C. parapsilosis; Table 3b (additional results)): B (MIC of 1.01-2.0 μg/mL)
- IC90 (Septoria tritici (St); read-out: Concentration at 90% Inhibition St, Septoria tritici, growth inhibition at 48 hours vs 2% DMSO control): > 50 µg/mL
- IC90 (Septoria tritici (St); read-out: Concentration at 90% Inhibition St, Septoria tritici, growth inhibition vs 2% DMSO control at 48 hours): > 50 µg/mL
- IC90 (Rhizoctonia solani (Rs); read-out: Concentration at 90% Inhibition Rs, Rhizoctonia solani, mycelial plugs, growth inhibition at 48 hours vs 2% DMSO control): 0.4 µg/mL (≈ 0.68 µM)
- IC90 (Rhizoctonia solani (Rs); read-out: Concentration at 90% Inhibition Rs, Rhizoctonia solani, mycelial plugs, growth inhibition vs 2% DMSO control at 48 hours): 0.08 µg/mL (≈ 0.136 µM)
- IC50 (fungal (fACC2); Table 2a): 1 to 5 nM
- IC50 (fungal (fACC2); Table 2b, additional results): 1 to 5 nM
- IC90 ([4]; read-out: Concentration at 90% Inhibition Fv, Fusarium virguliforme, growth inhibition at 48 hours vs 2% DMSO control): 0.4 µg/mL (≈ 0.68 µM)
- IC90 ([4]; read-out: Concentration at 90% Inhibition Fv, Fusarium virguliforme, growth inhibition vs 2% DMSO control at 48 hours): 0.4 µg/mL (≈ 0.68 µM)
- IC90 (Botrtyis cinerea (Bc); read-out: Concentration at 90% Inhibition Bc, Botrtyis cinerea, growth inhibition at 48 hours vs 2% DMSO control): 2 µg/mL (≈ 3.4 µM)
- IC90 (Botrtyis cinerea (Bc); read-out: Concentration at 90% Inhibition Bc, Botrtyis cinerea, growth inhibition vs 2% DMSO control at 48 hours): 2 µg/mL (≈ 3.4 µM)
- IC50 (human (hACC2); Table 2a): 5 to 10 nM
- IC50 (human (hACC2); Table 2b, additional results): 5 to 10 nM
- MIC, C. albicans ATCC 90028 (C. albicans; Table 3a): C (MIC of 2.1-4.0 μg/mL)
- MIC, C. albicans ATCC 90028 (C. albicans; Table 3b (additional results)): D (MIC of >4.01 μg/mL)
- IC90 (Diplodia maydis (Dm); read-out: Concentration at 90% Inhibition Dm, Diplodia maydis, growth inhibition at 48 hours vs 2% DMSO control): 0.4 µg/mL (≈ 0.68 µM)
- IC90 (Diplodia maydis (Dm); read-out: Concentration at 90% Inhibition Dm, Diplodia maydis, growth inhibition vs 2% DMSO control at 48 hours): 0.4 µg/mL (≈ 0.68 µM)

Structure (SMILES): COCCO[C@@H](Cn1c(=O)n([C@H](C)C(=O)NC(C)C)c(=O)c2c(C)c(-n3nccn3)sc21)c1cc(F)ccc1OC [Compound I-67, (R)-2-(1-((R)-2-(5-fluoro-2-methoxyphenyl)-2-(2-methoxy-ethoxy)ethyl)-5-methyl-2,4-dioxo-6-(2H-1,2,3-triazol-2-yl)-1,4-dihydrothieno[2,3-d]pyrimidin-3(2H)-yl)-N-isopropylpropanamide]
- MIC (C. krusei; Table 3a): 0.25 to 1 µg/mL (≈ 0.425 to 1.7 µM)
- MIC (C. krusei; Table 3b (additional results)): 2.01 to 4 µg/mL (≈ 3.41 to 6.8 µM)
- IC90 ([1]; Fusarium moniliforme, growth inhibition vs 2% DMSO control at 48 hours): 0.08 µg/mL (≈ 0.136 µM)
- IC90 ([2]; growth inhibition vs 2% DMSO control at 48 hours, read-out: Concentration at 90% Inhibition Pc): > 50 µg/mL
- IC90 ([3]; Collectotrichum graminicola, growth inhibition vs 2% DMSO control at 48 hours, read-out: Concentration at 90% Inhibition Cg): 0.08 µg/mL (≈ 0.136 µM)
- MIC (C. parapsilosis; Table 3a): 1.1 to 2 µg/mL (≈ 1.87 to 3.4 µM)
- MIC (C. parapsilosis; Table 3b (additional results)): 1.01 to 2 µg/mL (≈ 1.72 to 3.4 µM)
- IC90 (Septoria tritici (St); Septoria tritici, growth inhibition vs 2% DMSO control at 48 hours, read-out: Concentration at 90% Inhibition St): 10 µg/mL (≈ 17 µM)
- IC90 (Rhizoctonia solani (Rs); mycelial plugs, growth inhibition vs 2% DMSO control at 48 hours, read-out: Concentration at 90% Inhibition Rs): 0.08 µg/mL (≈ 0.136 µM)
- IC50 (fungal (fACC2); Table 2a): 1 to 5 nM
- IC50 (fungal (fACC2); Table 2b, additional results): 1 to 5 nM
- IC90 ([4]; growth inhibition vs 2% DMSO control at 48 hours, read-out: Concentration at 90% Inhibition Fv): 0.4 µg/mL (≈ 0.68 µM)
- IC90 (Botrtyis cinerea (Bc); Botrtyis cinerea, growth inhibition vs 2% DMSO control at 48 hours, read-out: Concentration at 90% Inhibition Bc): 0.08 µg/mL (≈ 0.136 µM)
- IC50 (human (hACC2); Table 2a): 5 to 10 nM
- IC50 (human (hACC2); Table 2b, additional results): 5 to 10 nM
- MIC (C. albicans; Table 3a): 1.1 to 2 µg/mL (≈ 1.87 to 3.4 µM)
- MIC (C. albicans; Table 3b (additional results)): > 4.01 µg/mL
- IC90 (Diplodia maydis (Dm); Diplodia maydis, growth inhibition vs 2% DMSO control at 48 hours, read-out: Concentration at 90% Inhibition Dm): 0.08 µg/mL (≈ 0.136 µM)
